Assay results taken from patent US5030634A (priority 1990, dated 1991).

What was measured:
[1] = test system: rheumatoid arthritis patients; assay: Double-blind clinical trial of 10-deazaaminopterin versus methotrexate in rheumatoid arthritis: toxicity evaluation; type: in vivo, human; conditions: for Toxicity: Dizziness / Toxicity: Gastrointestinal / Toxicity: Leukopenia / Toxicity: Rash: n = 7 per arm, 18 week trial
Description: The double-blind clinical trail of 10-deazaaminopterin versus methotrexate in rheumatoid arthritis was conducted at Universidad Peruana Cayetano Heredia, Lima, Peru. In order to detect 30% differences in either direction for both -efficacy and toxicity a sample size of 20 was used. The trial was conducted according to the following protocol.
The null hypotheses to be investigated included the following
Randomization was performed before the study began; an equal number of patients in each arm of the protocol was secured. Codes were made available to the investigator in sealed envelopes at the beginning of the trial; they were allowed to be opened by the investigator, only if felt to be mandatory for patient management. Patients received a three week supply of either 10-deazaaminopterin or methotrexate. […] Initially the patients received three capsules/week (or 7.5 mg). The capsules were taken at 12 hour intervals over a 24 hour period (8 a.m.-8 p.m. -8 a.m. the following day).
A data base which included a complete history, physical and laboratory exams was completed (Visit 0 or eligibility visit). […] If the patient was felt to be eligible, he/she was entered into the trial the following week (Visit 1) at which time disease activity was assessed and a functional test completed. Patients returned to the clinic every three weeks at which time joint counts were performed, side effects monitored and laboratory studies obtained. An assessment of response was done at week nine (Visit 3). At week 18 (Visit 6) or before (if the patient decides to be removed from the trial) the patient would have a complete exit evaluation, similar to the one performed on visit 1.
Joint counts for pain/tenderness in 60 diarthrodial joints and for swelling in 58 diarthrodial joints Laboratory tests included: CBC, with platelets and differential, Creatinine, SGOT and Alkaline phosphatase. […] 5 ml of sera were secured at entry and at study completion and stored at -20° C. for further studies.
Adverse effects were determined by interviewing the patient; each new symptom developing since the previous visit were recorded as to the date or onset, date of cessation, and whether it was felt to be related or unrelated to the study drug(s).
Minor itching and skin rashes could be handled with antihistaminics or topical steroids; a drop in the WBC ([…]) or in the platelets (<100,000/mm^3), or an increase in the liver enzymes ×2 normal), or an increase in the baseline creatinine (×2 normal) would prompt holding the drug for one week; if the values improved, patients may be restarted on the drug; if no improvement occurs in 3 weeks, the patient should be withdrawn. […] If no improvement occurs in 3 weeks, the patient should be withdrawn from the trial. If a patient develops a serious intercurrent infectious process, or requires elective or emergency surgery during the study period, the patient should be withdrawn from the trial.

[2] = mammalian tissues; cited from earlier work
dihydrofolate reductase = conditions: 10-deazaaminopterin compared with methotrexate; cited from earlier work
cancer patients = conditions: anticancer clinical trials, Cancer Treatment Reports 71:95, 1987; cited from earlier work
[3] = test system: patients receiving methotrexate; conditions: cited from earlier work

SMILES	Toxicity in humans versus methotrexate (in words) ([1]; clinical trials (not further specified), compared with methotrexate)	Frequency of toxicity (in words) ([1]; human, in vivo)	Toxicity: Dizziness [1]	Toxicity: Gastrointestinal [1]	Toxicity: Leukopenia [1]	Toxicity: Rash [1]	Metabolism to poly-gamma-glutamates [2]	Inhibition of dihydrofolate reductase (in words) (dihydrofolate reductase)	Bone marrow depression (cancer patients)	Nausea and vomiting (cancer patients)	Patients who experienced an adverse drug reaction during treatment ([3]; human, in vivo)	Patients with toxic manifestations (nausea, stomatitis, elevated liver function tests, cytopenias, pulmonary toxicity) ([3]; patients receiving methotrexate)	Toxicity of methotrexate (in words) ([3]; use in rheumatoid arthritis)
Nc1nc(N)c2nc(CCc3ccc(C(=O)NC(CCC(=O)O)C(=O)O)cc3)cnc2n1 (stereo not shown) [10-deazaaminopterin]	remarkably less toxic to humans	low frequency of toxicity	0	2	0	1	also metabolized to its poly-gamma-glutamates in mammalian tissues	inhibit this enzyme to approximately the same magnitude	minimal	mild	–	–	–
CN(Cc1cnc2nc(N)nc(N)c2n1)c1ccc(C(=O)N[C@@H](CCC(=O)O)C(=O)O)cc1 [methotrexate, reference compound]	–	–	1	2	1	0	metabolism of methotrexate to its poly-gamma-glutamates	inhibit this enzyme to approximately the same magnitude	–	–	93 % of patients	30-60 % of patients	very toxic drug
